Measurements as given in patent publication US20160077077A1, “Zinc Fluorescent Probe” (The Procter & Gamble Company, priority 2014, published 2016).

What was measured:
[1] = Metal ion sensing (fluorescence response of Compound R3 to Zn^2+)
Description: (§1) The procedure for metal ion sensing is described. Solutions of the metal ions (10.0 mM) are prepared in deionized water. A stock solutions of Compound R3 (0.2 mM) is prepared in ethanol and then diluted to 20 μM with ethanol-water (1: 1, v/v, pH 7.04) for spectral measurement. For titration experiments, a 2.0 mL solution of Compound R3 (20 μM) is filled in a quartz optical cell of 1 cm optical path length. Zn^2+ stock solution is added into the quartz optical cell gradually by micro-pipette. Spectral data is recorded at 5 min after addition. In selectivity experiments, test samples are prepared by placing appropriate amounts of metal ion stock into 2.0 mL solution of R3 (20 μM). For fluorescence measurements, excitation is provided at 560 nm, while emission is collected from 565 nm to 700 nm.

[2] = system: Streptococcus mutans (ATCC® 700610™); assay: Fluorescence imaging of Zn^2+ in bacteria (CLSM); format: cell-based; conditions: λex 543 nm
Description: The Streptococcus mutans is prepared by inoculating the single colony from the BHI agar plate into 5 mL BHI broth and incubating at 37° C. for 48 hours. The Streptococcus mutans are separately stained with 10 μM of Compound R3 at 37° C. for 60 min.
FIG. 2a 2f are CLSM images of Streptococcus mutans (ATCC® 700610™) cells. FIGS. 2a, 2b, and 2c are said cells incubated with 10 μM of inventive Compound R3 for 60 min to assess base level background fluorescence noise. FIGS. 2d, 2e, and 2f are cells from the same sample pool subsequently incubated with 50 μM Zn^2+ for 60 min. And then red channel emission is collected at 560-660 nm for FIGS. 2b and 2e (λex=543 nm), while FIGS. 2a and 2d are bright-field images. FIG. 2c is an overlay of FIG. 2a and FIG. 2b, while FIG. 2f is an overlap of FIG. 2d and FIG. 2e.

[3] = Metal ion sensing (fluorescence response of Compound R3 to Hg^2+); conditions: excitation 560 nm
Description: as §1, with “A stock solutions of Compound R3 (0.2 mM) is prepared in ethanol and then diluted to 20 μM with ethanol-water (1: 1, v/v, pH 7.04) for spectral measurement.” left out

[4] = Metal ion sensing (fluorescence response of Compound R3 to other metal ions); conditions: excitation 560 nm
Description: as §1, with “A stock solutions of Compound R3 (0.2 mM) is prepared in ethanol and then diluted to 20 μM with ethanol-water (1: 1, v/v, pH 7.04) for spectral measurement.” left out

[5] = Metal ion sensing (fluorescence response of Compound R3 to Ca^2+); conditions: Compound R3 2.0 × 10^−5M + Ca^2+ 20.0 × 10^−5M, ethanol-PBS (1:1, v/v, pH 8.04), excitation 560 nm
Description: as §1, with “A stock solutions of Compound R3 (0.2 mM) is prepared in ethanol and then diluted to 20 μM with ethanol-water (1: 1, v/v, pH 7.04) for spectral measurement.” left out

[6] = Assessing Zn chelation effectiveness (R3 fluorescence with various zinc compounds)
Description: Another application of the composition of the present invention is assessing the effectiveness of a zinc chelator or a zinc chelating system. One aspect of the invention provides a method of assessing the Zn^2+ chelating effectiveness of Zn^2+ chelator or a Zn^2+ chelating system comprising the steps: (a) incubating the Zn^2+ chelator or a Zn^2+ chelating system with a compound of the present invention; (b) shining excitation light to the incubated Zn^2+ chelator or a Zn^2+ chelating system; and (c) detecting light emission from the compound from 560 nm to 660 nm.
There are at least three variables that may affect zinc chelation. Firstly, the inherent characteristic of any particularly zinc chelator compound. Such compounds include lactate, sulfate, nitrate, chloride, citrate, anions, and the like. Mechanism of actions may include ionic interaction (as in a salt) or covalent binding. Another variable is the concentration of one or more zinc chelators in a zinc chelating system. Generally, the more of a zinc chelator the more zinc chelation is observed. […]
Table 2 is the fluorescent relative intensity of inventive Compound R3 (5.0×10^−5 M) upon the addition of various zinc compounds. Each sample contains the same level of zinc ion (5.0×10^−4 M) in H2O/DMSO (1000:1, V/V) solution, with fluorescence assessed at an excitation of 560 nm.

HeLa cells = assay: Fluorescence imaging of intracellular Zn^2+ (CLSM); format: cell-based; conditions: λex 543 nm, emission 560-660 nm
Description: Confocal fluorescence imaging is performed with an OLYMPUS IX81 laser scanning microscope and a 60 ×oil-immersion objective lens. The microscope is equipped with multiple visible laser lines (405, 488, 543 nm). Images are collected and processed with Olympus FV10-ASW software.
The HeLa cell line is provided by Biochemistry and Cell Biology (China). Cells are grown in DMEM (Dulbecco's modified Eagle's medium) supplemented with 10% FBS (Fetal Bovine serum) and 5% CO2 at 37° C.
HeLa cells ([…]) are plated on […] glass cover slips and allowed to adhere for 24 hours. 10 μM of Compound R3 in the culture media containing 0.2% (v/v) DMSO is added to the cells. The cells are incubated at 37° C. for 30 min, and washed with PBS three times to remove the excess R3 probe and bathed in PBS (2 mL) before imaging. After washing with PBS (2 mL×3) to remove the excess probe, the cells are treated with 50 μM Zinc lactate for 30 min. Excitation of Compound R3 loaded cells at 543 nm is carried out with a semiconductor laser, and emission is collected at 560-660 nm (single channel).

Structure (SMILES)	Fluorescence of the solution without metal ion ([1]; Compound R3 20 μM in control ethanol-water (1:1, v/v, pH 7.04), no Zn^2+)	Fluorescence at 580 nm on addition of Zn^2+ ([1]; Compound R3 20 μM, ethanol-water (1:1, v/v, pH 7.04), Zn^2+ 0-12 eq, excitation 560 nm)	Fluorescence intensity in presence of Zn^2+ (selectivity) ([1]; Compound R3 20 μM, ethanol-water (1:1, v/v, pH 7.04), excitation 560 nm)	Peak Fluorescence Intensity (a.u.) at 570-580 nm ([1]; Compound R3 2.0 × 10^−5M + Zn^2+ 20.0 × 10^−5M, ethanol-PBS (1:1, v/v, pH 8.04), excitation 560 nm) [a.u.]	Fluorescence in Streptococcus mutans after Zn^2+ ([2]; 10 μM Compound R3 60 min at 37° C., then 50 μM Zn^2+ 60 min, emission 560-660 nm (FIG. 2e))	Fluorescence emission in Streptococcus mutans without Zn^2+ ([2]; 10 μM Compound R3, 60 min, 37° C., emission 560-660 nm, no Zn^2+ (FIG. 2b))	Fluorescence intensity in presence of Hg^2+ (selectivity) ([3]; Compound R3 20 μM, ethanol-water (1:1, v/v, pH 7.04))	Peak Fluorescence Intensity (a.u.) at 570-580 nm ([3]; Compound R3 2.0 × 10^−5M + Hg^2+ 20.0 × 10^−5M, ethanol-PBS (1:1, v/v, pH 8.04)) [a.u.]	Fluorescence intensity in presence of other transition and heavy metal ions (selectivity) ([4]; Compound R3 20 μM, ethanol-water (1:1, v/v, pH 7.04), K^+, Ag^+, Ca^2+, Mg^2+, Pb^2+, Ni^2+, Mn^2+, Co^2+, Cd^2+, Cu^2+, Fe^2+, Cr^3+, Li^+, Ba^2+, Fe^3+, Na^+)	Peak Fluorescence Intensity (a.u.) at 570-580 nm ([4]; Compound R3 2.0 × 10^−5M + other metal ions (K^+, Ag^+, Ca^2+, Mg^2+, Pb^2+, Ni^2+, Mn^2+, Co^2+, Cd^2+, Cu^2+, Fe^2+, Cr^3+, Li^+, Ba^2+, Fe^3+, Na^+) 20.0 × 10^−5M, ethanol-PBS (1:1, v/v, pH 8.04)) [a.u.]	Peak Fluorescence Intensity (a.u.) at 570-580 nm [5] [a.u.]	Peak Fluorescence Intensity (a.u.) at 570-580 nm ([6]; Compound R3 5.0×10^−5 M only (control, no zinc), H2O/DMSO (1000:1, V/V), excitation 560 nm) [a.u.]	Intracellular fluorescence in HeLa cells after Zn^2+ (HeLa cells; 10 μM Compound R3 30 min at 37° C., then 50 μM Zn^2+ 30 min)	Fluorescence emission in HeLa cells without Zn^2+ (HeLa cells; 10 μM Compound R3, 30 min, 37° C., no Zn^2+ (FIG. 1b))	Relative degree of zinc chelation effectiveness ([6]; among the zinc chelators tested (lactate, sulfate, citrate), from Table 2)
CCN(CC)c1ccc2c(c1)Oc1cc(N(CC)CC)ccc1C21c2ccccc2C(=O)N1CCNCc1ccc[nH]1 [Compound R3, 2-(2-(((1H-pyrrol-2-yl)methyl)amino)ethyl)-3′,6′-bis(diethylamino)spiro[isoindoline-1,9′-xanthen]-3-one]	non fluorescent	turned on and grew drastically	greatest fluorescence intensity	0.7	significant fluorescence increase	no fluorescence emission	greatest fluorescence intensity	1.0	minimal fluorescence intensity	<0.1	0.25	0.1	significant fluorescence increase	no fluorescence emission	
CC(O)C(=O)[O-].CC(O)C(=O)[O-].[Zn+2] (stereo not drawn) [zinc lactate, reference compound]															weakest relative degree of zinc chelation effectiveness
